Measurements published in BindingDB's records for doi:10.1016/s0960-894x(98)00240-6 (Boehringer Ingelheim (Canada), 1999).

Experiment: Inhibitory activity against porcine pancreatic elastase(PPE)
For CC[C@@H](NC(=O)N1C(=O)[C@@H](C)[C@@H]1SCc1ccccn1)c1ccccc1 [(3R,4S)-3-Methyl-2-oxo-4-(pyridin-2-ylmethylsulfanyl)-azetidine-1-carboxylic acid ((R)-1-phenyl-propyl)-amide], the IC50 was 0.73 µM. O=C1CC(SCc2ccccn2)N1C(=O)N[C@H](CO)c1ccccc1 (stereo partly drawn) [2-Oxo-4-(pyridin-2-ylmethylsulfanyl)-azetidine-1-carboxylic acid ((S)-2-hydroxy-1-phenyl-ethyl)-amide] gave an IC50 of over 75 µM. For CC(C)C[C@@H](COC1CC(=O)N1C(=O)NCc1ccccc1)NC(=O)[C@@H](NC(=O)OC(C)(C)C)C(C)(C)C (stereo partly drawn) [{(S)-1-[(S)-1-(1-Benzylcarbamoyl-4-oxo-azetidin-2-yloxymethyl)-3-methyl-butylcarbamoyl]-2,2-dimethyl-propyl}-carbamic acid tert-butyl ester], the IC50 was over 75 µM. With C[C@@H](NC(=O)N1C(=O)CC1SCc1ccncc1)c1ccccc1 (stereo partly drawn) [2-Oxo-4-(pyridin-4-ylmethylsulfanyl)-azetidine-1-carboxylic acid ((R)-1-phenyl-ethyl)-amide] the IC50 was 21 µM. C[C@@H](NC(=O)N1C(=O)CC1SCc1cccnc1)c1ccccc1 (stereo partly drawn) [2-Oxo-4-(pyridin-3-ylmethylsulfanyl)-azetidine-1-carboxylic acid ((R)-1-phenyl-ethyl)-amide] showed an IC50 of 65 µM.
